{"source": "patent US11807634B2", "about": "“Cyclopropyl dihydroquinoline sulfonamide compounds” (AMGEN INC., priority 2020, dated 2023)"}
{"tested_on": "CYP3A4", "experiment": "Human CYP 3A4 induction assay (mRNA, cryopreserved human hepatocytes)", "type": "in vitro ADME", "conditions": "human hepatocytes, 10 uM test compound, 72 hours, mRNA, percent of control (rifampin positive control)", "description": "Human CYP 3A4 Induction Assay\nCryopreserved human hepatocytes were seeded in 96-well collagen coated plates at 70,000 cells per well in hepatocyte plating media (HPM, final concentrations: 1× Dulbecco's Modified Eagle's Medium, 0.1 μM dexamethasone, 10% fetal bovine serum, 1× ITS, 1×PSG) followed by incubation at 37° C. under 5% CO2 and 90% relative humidity for 2 days to allow hepatocytes to form a confluent layer. On Day 3, hepatocytes were treated with either test compound or rifampin (20 μM, positive control for CYP3A induction) prepared in hepatocyte incubation media ((HIM, final concentrations: 1× William's Medium E, 0.1 μM dexamethasone, 1×ITS, 1×PSG). Treatment was performed for 72 hours with either 2 concentrations (2 μM or 10 μM) or a range of concentrations (0.001 μM to 100 μM) of the test compound to obtain full dose-response curve. Fresh media containing the relevant concentrations of the test compound was replaced every day until the samples were processed. After 72 hours of incubation, samples were processed for mRNA analysis using bDNA technology using manufacturer's instructions (Affymetrix, Fremont, Calif.). Cell viability was tested at the end of the experiment using MTT assay kit (Roche Diagnostics, Basel, Switzerland). Data was analyzed and presented as percent of control (POC) and Emax and EC50 obtained when appropriate according to guidance from Center for Drug Evaluation and Research (CDER), 2006, Guidance for Industry, Drug Interaction Studies—Study Design, Data Analysis, and Implications for Dosing and Labeling.\nCryopreserved human hepatocytes were seeded in 96-well collagen coated plates at 70,000 cells per well in hepatocyte plating media (HPM, final concentrations: 1× Dulbecco's Modified Eagle's Medium, 0.1 μM dexamethasone, 10% fetal bovine serum, 1×ITS, 1×PSG) followed by incubation at 37° C. under 5% CO2 and 90% relative humidity for 2 days to allow hepatocytes to form a confluent layer. On Day 3, hepatocytes were treated with either test compound or rifampin (20 μM, positive control for CYP3A induction) prepared in hepatocyte incubation media ((HIM, final concentrations: 1× William's Medium E, 0.1 μM dexamethasone, 1×ITS, 1×PSG). Treatment was performed for 72 hours with either 2 concentrations (2 μM or 10 μM) or a range of concentrations (0.001 μM to 100 μM) of the test compound to obtain full dose-response curve. Fresh media containing the relevant concentrations of the test compound was replaced every day until the samples were processed. After 72 hours of incubation, samples were processed for mRNA analysis using bDNA technology using manufacturer's instructions (Affymetrix, Fremont, Calif.). Cell viability was tested at the end of the experiment using MTT assay kit (Roche Diagnostics, Basel, Switzerland). Data was analyzed and presented as percent of control (POC) and Emax and EC50 obtained when appropriate, as described in Halladay, J. et al, 2012, An “all-inclusive” 96-well cytochrome P450 induction method: Measuring enzyme activity, mRNA levels, protein levels, and cytotoxicity from one well using cryopreserved human hepatocytes, Pharmacological and Toxicological Methods, 66:270-275.\nThe cytochrome P450 (CYP) is a well-known superfamily of enzymes that are responsible for the oxidative and reductive metabolic transformation of medications used in clinical practice. In addition, the CYP enzymes are commonly associated with causing many clinically relevant drug-drug interactions. Of the CYP enzymes, CYP3A4 is not only the most prevalent CYP enzyme in the liver and intestine, but is responsible for metabolism and elimination of approximately 50% of marketed drugs. In addition, CYP3A4 activity can be induced (or increased) or inhibited (decreased) in response to administration of certain drugs, thereby affecting concentrations of their own or certain concomitant drugs present in the body. […]", "units": {"CYP3A4 mRNA Induct Hu 10 uM POC": "%"}}
{"smiles": "COc1cc([C@H]2C[C@@H]2C(F)(F)F)c(F)cc1-n1c(=O)ccc2cc(S(=O)(=O)Nc3ccon3)ccc21", "note": "(atropisomer, axis not shown; (P)) [Example 4, (P)-1-(5-fluoro-2-methoxy-4-((1S,2S)-2-(trifluoromethyl)cyclopropyl)phenyl)-N-(isoxazol-3-yl)-2-oxo-1,2-dihydroquinoline-6-sulfonamide]", "CYP3A4 mRNA Induct Hu 10 uM POC": 15.9}
{"smiles": "COc1cc([C@@H]2C[C@H]2C(F)(F)F)c(F)cc1-n1c(=O)ccc2cc(S(=O)(=O)Nc3ccon3)ccc21", "note": "(atropisomer, axis not shown; (P)) [Example 5, (P)-1-(5-fluoro-2-methoxy-4-((1R,2R)-2-(trifluoromethyl)cyclopropyl)phenyl)-N-(isoxazol-3-yl)-2-oxo-1,2-dihydroquinoline-6-sulfonamide]", "CYP3A4 mRNA Induct Hu 10 uM POC": 41.96}
{"smiles": "COc1cc([C@@H]2C[C@H]2C)c(F)cc1-n1c(=O)ccc2cc(S(=O)(=O)Nc3ccon3)ccc21", "note": "(atropisomer, axis not shown; (P)) [Example 6, (P)-1-(5-fluoro-2-methoxy-4-((1R,2R)-2-methylcyclopropyl)phenyl)-N-(isoxazol-3-yl)-2-oxo-1,2-dihydroquinoline-6-sulfonamide]", "CYP3A4 mRNA Induct Hu 10 uM POC": 25.49}
{"smiles": "COc1cc([C@H]2C[C@@H]2C)c(F)cc1-n1c(=O)ccc2cc(S(=O)(=O)Nc3ccon3)ccc21", "note": "(atropisomer, axis not shown; (P)) [Example 7, (P)-1-(5-fluoro-2-methoxy-4-((1S,2S)-2-methylcyclopropyl)phenyl)-N-(isoxazol-3-yl)-2-oxo-1,2-dihydroquinoline-6-sulfonamide]", "CYP3A4 mRNA Induct Hu 10 uM POC": 41.2}
{"smiles": "COc1cc([C@@H]2C[C@H]2c2ccccc2)c(F)cc1-n1c(=O)ccc2cc(S(=O)(=O)Nc3ccon3)ccc21", "note": "(atropisomer, axis not shown; (P)) [Example 8, (P)-1-(5-fluoro-2-methoxy-4-((1R,2R)-2-phenylcyclopropyl)phenyl)-N-(isoxazol-3-yl)-2-oxo-1,2-dihydroquinoline-6-sulfonamide]", "CYP3A4 mRNA Induct Hu 10 uM POC": 27.54}
{"smiles": "COc1cc([C@H]2C[C@@H]2c2ccccc2)c(F)cc1-n1c(=O)ccc2cc(S(=O)(=O)Nc3ccon3)ccc21", "note": "(atropisomer, axis not shown; (P)) [Example 9, (P)-1-(5-fluoro-2-methoxy-4-((1S,2S)-2-phenylcyclopropyl)phenyl)-N-(isoxazol-3-yl)-2-oxo-1,2-dihydroquinoline-6-sulfonamide]", "CYP3A4 mRNA Induct Hu 10 uM POC": 37.165}
{"smiles": "COc1cc([C@H]2C[C@@H]2C(F)(F)F)c(Cl)cc1-n1c(=O)ccc2cc(S(=O)(=O)Nc3ncccn3)ccc21", "note": "(atropisomer, axis not shown; (P)) [Example 12, (P)-1-(5-chloro-2-methoxy-4-((1S,2S)-2-(trifluoromethyl)cyclopropyl)phenyl)-2-oxo-N-(pyrimidin-2-yl)-1,2-dihydroquinoline-6-sulfonamide]", "CYP3A4 mRNA Induct Hu 10 uM POC": 29.85}
{"smiles": "COc1cc([C@@H]2C[C@H]2C(F)(F)F)c(Cl)cc1-n1c(=O)ccc2cc(S(=O)(=O)Nc3ncccn3)ccc21", "note": "(atropisomer, axis not shown; (P)) [Example 13, (P)-1-(5-chloro-2-methoxy-4-((1R,2R)-2-(trifluoromethyl)cyclopropyl)phenyl)-2-oxo-N-(pyrimidin-2-yl)-1,2-dihydroquinoline-6-sulfonamide]", "CYP3A4 mRNA Induct Hu 10 uM POC": 92.47}
{"smiles": "COc1cc([C@@H]2C[C@H]2C(F)(F)F)c(F)cc1-n1c(=O)ccc2cc(S(=O)(=O)Nc3cccnn3)ccc21", "note": "(atropisomer, axis not shown; (P)) [Example 16, (P)-1-(5-fluoro-2-methoxy-4-((1R,2R)-2-(trifluoromethyl)cyclopropyl)phenyl)-2-oxo-N-(pyridazin-3-yl)-1,2-dihydroquinoline-6-sulfonamide]", "CYP3A4 mRNA Induct Hu 10 uM POC": 27.11}
{"smiles": "COc1cc([C@H]2C[C@@H]2C(F)(F)F)c(F)cc1-n1c(=O)ccc2cc(S(=O)(=O)Nc3cccnn3)ccc21", "note": "(atropisomer, axis not shown; (P)) [Example 17, (P)-1-(5-fluoro-2-methoxy-4-((1S,2S)-2-(trifluoromethyl)cyclopropyl)phenyl)-2-oxo-N-(pyridazin-3-yl)-1,2-dihydroquinoline-6-sulfonamide]", "CYP3A4 mRNA Induct Hu 10 uM POC": 37.04}
{"smiles": "COc1cc([C@@H]2C[C@H]2C(F)(F)F)c(Cl)cc1-n1c(=O)ccc2cc(S(=O)(=O)Nc3ccon3)ccc21", "note": "(atropisomer, axis not shown; (P)) [Example 18, (P)-1-(5-chloro-2-methoxy-4-((1R,2R)-2-(trifluoromethyl)cyclopropyl)phenyl)-N-(isoxazol-3-yl)-2-oxo-1,2-dihydroquinoline-6-sulfonamide]", "CYP3A4 mRNA Induct Hu 10 uM POC": 9.92}
{"smiles": "COc1cc([C@H]2C[C@@H]2C(F)(F)F)c(Cl)cc1-n1c(=O)ccc2cc(S(=O)(=O)Nc3ccon3)ccc21", "note": "(atropisomer, axis not shown; (P)) [Example 19, (P)-1-(5-chloro-2-methoxy-4-((1S,2S)-2-(trifluoromethyl)cyclopropyl)phenyl)-N-(isoxazol-3-yl)-2-oxo-1,2-dihydroquinoline-6-sulfonamide]", "CYP3A4 mRNA Induct Hu 10 uM POC": 85.5}
{"smiles": "COc1cc([C@@H]2C[C@H]2C(F)(F)F)c(F)cc1-n1c(=O)ccc2cc(S(=O)(=O)Nc3ncccn3)ccc21", "note": "(atropisomer, axis not shown; (P)) [Example 20, (P)-1-(5-fluoro-2-methoxy-4-((1R,2R)-2-(trifluoromethyl)cyclopropyl)phenyl)-2-oxo-N-(pyrimidin-2-yl)-1,2-dihydroquinoline-6-sulfonamide]", "CYP3A4 mRNA Induct Hu 10 uM POC": 67.47}
{"smiles": "COc1cc([C@H]2C[C@@H]2C(F)(F)F)c(F)cc1-n1c(=O)ccc2cc(S(=O)(=O)Nc3ncccn3)ccc21", "note": "(atropisomer, axis not shown; (P)) [Example 21, (P)-1-(5-fluoro-2-methoxy-4-((1S,2S)-2-(trifluoromethyl)cyclopropyl)phenyl)-2-oxo-N-(pyrimidin-2-yl)-1,2-dihydroquinoline-6-sulfonamide]", "CYP3A4 mRNA Induct Hu 10 uM POC": 34.81}
{"smiles": "COc1cc(C2(C(F)(F)F)CC2)c(F)cc1-n1c(=O)ccc2cc(S(=O)(=O)Nc3ncccn3)ccc21", "note": "(atropisomer, axis not shown; (P)) [Example 23, (P)-1-(5-fluoro-2-methoxy-4-(1-(trifluoromethyl)cyclopropyl)phenyl)-2-oxo-N-(pyrimidin-2-yl)-1,2-dihydroquinoline-6-sulfonamide]", "CYP3A4 mRNA Induct Hu 10 uM POC": 85.95}
{"smiles": "COc1cc(C2(C(F)(F)F)CC2)c(Cl)cc1-n1c(=O)ccc2cc(S(=O)(=O)Nc3ccon3)ccc21", "note": "(atropisomer, axis not shown; (P)) [Example 24, (P)-1-(5-chloro-2-methoxy-4-(1-(trifluoromethyl)cyclopropyl)phenyl)-N-(isoxazol-3-yl)-2-oxo-1,2-dihydroquinoline-6-sulfonamide]", "CYP3A4 mRNA Induct Hu 10 uM POC": 100.7}
{"smiles": "COc1cc(C2(C(F)(F)F)CC2)c(Cl)cc1-n1c(=O)ccc2cc(S(=O)(=O)Nc3ncccn3)ccc21", "note": "(atropisomer, axis not shown; (P)) [Example 25, (P)-1-(5-chloro-2-methoxy-4-(1-(trifluoromethyl)cyclopropyl)phenyl)-2-oxo-N-(pyrimidin-2-yl)-1,2-dihydroquinoline-6-sulfonamide]", "CYP3A4 mRNA Induct Hu 10 uM POC": 88.68}
